Results on 23 compounds are retold here after PMC9775004 (Biosensors, 2022).

One assay has as its system FILLac10N0C. Nature of the assay: FRET emission ratio (Venus to mTFP) response of purified FILLac10N0C. The assay is classed as binding, Salmonella enterica serovar Typhimurium LT2. On the procedure:
The FILLac expression vectors were constructed based on the plasmid pETDuet-mTFP-Venus carrying mTFP gene and Venus gene. The original STlldR gene, its truncated variants or variants with artificial linkers were inserted between the mTFP gene and Venus gene by T5 exonuclease DNA assembly method (TEDA) to construct pETDuet-FILLac0N0C and its variants.
The purified FILLac and different compounds were diluted with 50 mM Tris-HCl buffer (pH 7.4), and then mixed at a volume ratio of 3:1 into a black 96-well microplate for a total detection volume of 100 μL. The final concentration of FILLac in the reaction mixture was 1 μM. The fluorescence intensities of FILLac at 485 nm (mTFP) and 528 nm (Venus) were detected by using an EnSight multifunctional microplate detector (PerkinElmer, USA) with excitation at 430 nm. […] The maximum ratio changes (ΔRmax) were calculated according to the following formula:(2) ΔRmax=−Rmax−Rmin/Rmin. […]

Another assay addresses T1, EcLldR (Escherichia coli, UniProt P0ACL7).
T1 construct: His tag (inferred from pET28a and HisTrap purification); made in house; host or cells: E. coli BL21 (DE3)
Nature of the assay: Fluorescence-based thermal shift (FTS) assay with EcLldR. The assay is classed as binding, E. coli MG1655. The conditions noted are these: 1 mM compound, 10 μM LldR.

The next assay has as its system PaLldR. Nature of the assay: Fluorescence-based thermal shift (FTS) assay with PaLldR. It is filed as binding, Pseudomonas aeruginosa PAO1. The conditions noted are these: 1 mM compound, 10 μM LldR.
Another assay deals with PfLldR. Nature of the assay: Fluorescence-based thermal shift (FTS) assay with PfLldR. It is filed as binding, P. fluorescens A506. Conditions: 1 mM compound, 10 μM LldR.

SMILES strings stand for the structures. Read-outs that look alike come from different tables or passages of the source.

T1 sequence (P0ACL7 whole entry): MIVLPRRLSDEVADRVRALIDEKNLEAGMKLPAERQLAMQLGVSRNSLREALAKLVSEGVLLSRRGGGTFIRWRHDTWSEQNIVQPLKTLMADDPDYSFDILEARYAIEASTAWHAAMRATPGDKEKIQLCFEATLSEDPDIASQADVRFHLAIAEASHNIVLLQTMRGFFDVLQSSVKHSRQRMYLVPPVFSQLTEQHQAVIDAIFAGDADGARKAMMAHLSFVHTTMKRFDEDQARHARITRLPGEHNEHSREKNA
Protocol for EcLldR: (§1) The gene STlldR encoding LldR of S. Typhimurium LT2 (STLldR) was amplified from genome of the strain, and then ligated into the plasmid pET28a to construct pET28a-STlldR. The recombinant plasmid pET28a-STlldR was transformed into E. coli BL21 (DE3) for STLldR expression. The expression strain was cultured in LB medium at 37 °C until an optical density at 600 nm (OD600) of 0.6 and induced with 1 mM isopropyl-β-D-thiogalactoside (IPTG) at 16 °C for 12 h. […] The purified STLldR was analyzed by 13% sodium dodecyl sulfate-polyacrylamide gel electrophoresis (SDS-PAGE). The protein concentration was determined using a Bradford protein assay kit (Sangon, Shanghai, China), and stored at –80 °C. […]
(§2) FTS assays were performed using a LightCycler 480 system (Roche, Indianapolis, IN, USA) with the filter set to excitation wavelength 465 nm and emission wavelength 580 nm for SYPRO orange. […] The melting temperature (Tm) of LldR was calculated from the negative first derivative value of the raw fluorescence data. Thermal shift temperature (ΔTm) was calculated by subtracting the Tm of the control from the Tm of LldR with the addition of different compounds. […]
Protocol for PaLldR: as §1, §2
Protocol for PfLldR: as §1, §2

As to `O=C(O)CCC(=O)C(=O)O` [2-ketoglutarate], the “fluorescence emission ratio change of FILLac10N0C (specificity analysis)” value (“fluorescence emission ratio change” for short) with FILLac10N0C (50 μM compound) is listed as “did not change the emission ratio”.

For the compound `[Ca+2]` [Ca^2+], the “fluorescence emission ratio change” value in the assay with FILLac10N0C (50 μM compound) is recorded as “did not change the emission ratio”. On the same count and under the same terms, as for `O=C(O)CC[C@@H](O)C(=O)O` [D-2-hydroxyglutarate], the entry is “did not change the emission ratio”.

As for `C[C@@H](O)C(=O)O` [D-lactate], at EcLldR, the “change in Tm (ΔTm) of EcLldR” value is “significant changes in Tm”. Further, in the assay on PaLldR, the “change in Tm (ΔTm) of PaLldR” value is listed as “significant changes in Tm”. The “change in Tm (ΔTm) of PfLldR” value in the assay with PfLldR is “significant changes in Tm”.

With `O=C(O)C[C@@H](O)C(=O)O` [D-malate], the “fluorescence emission ratio change” value in the assay on FILLac10N0C (50 μM compound) is reported as “did not change the emission ratio”. On to `[K+]` [K^+], for which, in the assay with FILLac10N0C, the “fluorescence emission ratio change” value is “did not change the emission ratio”. `O=C(O)CC[C@H](O)C(=O)O` [L-2-hydroxyglutarate]: the “fluorescence emission ratio change” value in the assay on FILLac10N0C (50 μM compound) is reported as “did not change the emission ratio”. The same measure, in the same setting: the same measure for `N[C@@H](CCC(=O)O)C(=O)O` [L-glutamate]: “did not change the emission ratio”. Consider `C[C@H](O)C(=O)O` [L-lactate], for which the “change in Tm (ΔTm) of EcLldR” value on EcLldR was “significant changes in Tm”. The “change in Tm (ΔTm) of PaLldR” value in the assay on PaLldR is given as “significant changes in Tm”. In the assay with PfLldR, the “change in Tm (ΔTm) of PfLldR” value is listed as “significant changes in Tm”. With `O=C(O)C[C@H](O)C(=O)O` [L-malate], in the assay on FILLac10N0C (50 μM compound), the “fluorescence emission ratio change” value is listed as “did not change the emission ratio”. Still for that read-out and setting: as for `[Mg+2]` [Mg^2+], the entry is “did not change the emission ratio”. Same read-out and setting: the same measure for `N` [NH4^+]: “did not change the emission ratio”; for `[Na+]` [Na^+]: “did not change the emission ratio”; for `CC(=O)O` [acetate]: “did not change the emission ratio”. Still for that read-out and setting: the same measure for `O=C(O)/C=C(/CC(=O)O)C(=O)O` [cis-aconitate]: “did not change the emission ratio”; for `O=C(O)CC(O)(CC(=O)O)C(=O)O` [citrate]: “did not change the emission ratio”. In the case of `O=C(CO)[C@@H](O)[C@H](O)[C@H](O)CO` [fructose], the “fluorescence emission ratio change” value in the assay with FILLac10N0C (50 μM compound) was “did not change the emission ratio”. In the case of `O=C(O)/C=C/C(=O)O` [fumarate], the “fluorescence emission ratio change” value in the assay on FILLac10N0C (50 μM compound) is “did not change the emission ratio”.

`OC[C@H]1OC(O)[C@H](O)[C@@H](O)[C@@H]1O` (stereo partly shown) [glucose]: the “fluorescence emission ratio change” value with FILLac10N0C (50 μM compound) is “did not change the emission ratio”.

Consider `O=CC(=O)O` [glyoxylate], for which the “fluorescence emission ratio change” value in the assay with FILLac10N0C (50 μM compound) is “did not change the emission ratio”. Turning to `O=C(O)CC(=O)C(=O)O` [oxaloacetate], in the assay with FILLac10N0C (50 μM compound), the “fluorescence emission ratio change” value is “did not change the emission ratio”. On to `CC(=O)C(=O)O` [pyruvate], for which the “fluorescence emission ratio change” value in the assay on FILLac10N0C (50 μM compound) is given as “did not change the emission ratio”. In addition, the “effect on detection of L-lactate by FILLac10N0C” value with FILLac10N0C (50 μM of the compound present in the L-lactate dose-response) is “not affected”. As to `O=C(O)CCC(=O)O` [succinate], the “fluorescence emission ratio change” value in the assay on FILLac10N0C was “did not change the emission ratio”.
